Results taken from US9475841B2, “Melanoma antigen peptide and uses thereof” (INSERM (INSTITUT NATIONAL DE LA SANTE ET DE LA RECHERCHE …, priority 2012, dated 2016).
Residues, ends and D or L forms follow the SMILES beside them.

Key:
[1] = system: DQ2-restricted T cell clone 4E2
[2] = system: DQ2-restricted 9C12 T cell clone; details: 5 h
[3] = system: MELOE-1 specific CD4 T cell clones; experiment: Processing of epitopes by autologous DC loaded with antigen; TNF-α production of T cell clones; format: cell-based, human
Method: FIG. 4: Class II epitopes are naturally processed from MELOE-1 whole antigen. Autologous DC, were loaded (before or after fixation) with MELOE-12-46 (1 μM) or, as a negative control, with Melan-A16-40L peptide (1 μM), and matured. T cell clones were then stimulated with DC at a ratio 1:1, during 5 h in presence of Brefeldin A, then stained with APC-conjugated anti-CD3 mAb, fixed with 4% paraformaldehyde, labeled with PE-conjugated anti-TNF-α mAb and analyzed by flow cytometry. Histograms illustrated the % of TNF-α producing cells among CD3 positive T cells.
Monocytes were purified from PBMC of healthy donors by a CD14-enrichment kit, according the recommendations of the supplier (Stem Cell, France). Immature dendritic cells (iDC) were generated by culturing monocytes in RPMI supplemented with 20 mg/mL of human albumin, 1000 IU/mL of GM-CSF and 200 IU/mL of IL-4 for 5 days. Then, iDC were pulsed with the whole MELOE-1 (1 μM) protein or the modified Melan-A16-40 A27L as negative control (1 μM) and matured with 20 ng/mL of TNF-α and 50 μg/mL of PolyI:C for 4 hours at 37° C. Finally they were fixed for 1 minute with PBS/0.015% glutaraldehyde. Alternatively, iDC were first matured, fixed and then pulsed with antigens at the same concentration.
Alternatively, MELOE-1 specific CD4+ T cell clones were stimulated by autologous MELOE-1 loaded and matured DC at a 1:1 ratio. […]

[4] = system: DRβ1*0101 restricted T cell clone 5F9; experiment: Minimal peptides recognized by CD4 T cell clone (peptide titration, TNF-α production); format: cell-based, human; details: 5F9 T cell clone; 13-mer peptides
Method: FIG. 5: Minimal peptides recognized by MELOE-1 specific CD4 T cell clones. MELOE-1 specific CD4 T cell clones were incubated with various concentrations of the indicated peptides during 5 hours in presence of Brefeldin A. TNF-α production was assessed by intracellular labeling with an anti-TNF-α specific antibody. The core peptide sequence is indicated in bold on each figure panel, and black circles illustrate the best fitting peptide.
Our T cell clones were reactive against 20-mer peptides that are probably not the exact peptides naturally processed. In order to formally identify the minimal recognized epitopes, we tested shorter peptides derived from each of the MELOE-1 recognized regions, chosen on the basis of the core peptide sequence supposed to be recognized by the T cell clones (indicated in bold on FIG. 5).
Three shorter peptides were better recognized by the DQ2-restricted 9C12 T cell clone, the shortest one being MELOE-17-19 (13-mer), recognized with an EC50 of 100 nM. The deletion of the two amino acids in C-term strongly reduces T cell clone recognition. […] Nonetheless all of these clones recognized a series of shortened peptides, thus we cannot formally assess that the shortest ones will be the exact peptides naturally presented on class II molecules.

[5] = system: DRβ1*1101 restricted T cell clone 1A5; details: 5 h

RISSTLNDECWPA [32-44]
recognition by T cell clone ([1]; 4E2 T cell clone, compared with 31-44): recognized to a lower extent

CC(C)C[C@H](NC(=O)[C@H](Cc1ccccc1)NC(=O)[C@H](CCC(N)=O)NC(=O)[C@H](CCC(=O)O)NC(=O)[C@H](CCCNC(=N)N)NC(=O)[C@H](CO)NC(=O)[C@@H](NC(=O)[C@H](C)NC(=O)[C@H](CCC(=O)O)NC(=O)[C@H](CC(=O)O)NC(=O)[C@@H]1CCCN1)[C@@H](C)O)C(=O)N1CCC[C@H]1C(=O)N[C@@H](CO)C(=O)O [MELOE-17-19, PDEATSREQFLPS] (H-PDEATSREQFLPS-OH; N-terminus and C-terminus assumed)
EC50 [2]: 100 nM

MSCVGYPDEATSREQFLPSEGAACPPWHPSERISSTLNDECWPASL [MELOE-1, MELOE-1 whole antigen (46 amino acids)]
recognition by specific CD4 T cell clones of DC loaded after fixation ([3]; autologous DC loaded after DC fixation): only a weak recognition
reactivity of the four T cell clones against loaded autologous DC ([3]; iDC loaded with 1 μM in serum-free medium, matured, then fixed): reactive

CC[C@H](C)[C@H](NC(=O)[C@H](CCCNC(=N)N)NC(=O)[C@@H](N)CCC(=O)O)C(=O)N[C@@H](CO)C(=O)N[C@@H](CO)C(=O)N[C@H](C(=O)N[C@@H](CC(C)C)C(=O)N[C@@H](CC(N)=O)C(=O)N[C@@H](CC(=O)O)C(=O)N[C@@H](CCC(=O)O)C(=O)N[C@@H](CS)C(=O)N[C@@H](Cc1c[nH]c2ccccc12)C(=O)N1CCC[C@H]1C(=O)N[C@@H](C)C(=O)O)[C@@H](C)O [31-44, ERISSTLNDECWPA] (H-ERISSTLNDECWPA-OH; N-terminus and C-terminus assumed)
EC50 ([1]; 5 h): 100 nM

TSREQFLPSEGAA [MELOE-111-23]
recognition by T cell clone [4]: optimal shorter peptides

SREQFLPSEGAAC [MELOE-112-24]
recognition by T cell clone [4]: optimal shorter peptides

CC(C)C[C@H](NC(=O)[C@H](Cc1ccccc1)NC(=O)[C@@H](N)CCC(N)=O)C(=O)N1CCC[C@H]1C(=O)N[C@@H](CO)C(=O)N[C@@H](CCC(=O)O)C(=O)NCC(=O)N[C@@H](C)C(=O)N[C@@H](C)C(=O)N[C@@H](CS)C(=O)N1CCC[C@H]1C(=O)N1CCC[C@H]1C(=O)N[C@@H](Cc1c[nH]c2ccccc12)C(=O)O [MELOE-115-27, QFLPSEGAACPPW] (H-QFLPSEGAACPPW-OH; N-terminus and C-terminus assumed)
EC50 [5]: 100 nM
